Read-outs that look alike come from different tables or passages of the source.
Columns and labels:
HBV = experiment: Determination of HBV DNA from the supernatants of HepAD38 cells (anti-HBV activity); type: cell-based, hepatitis B virus; details: HBV DNA in HepAD38 supernatant at day 6, read-out: Cell Activity (EC50)
Procedure, shortened: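 HepAD38 cells (60,000/well) were treated with half-log compound dilutions in tetracycline-free medium to induce HBV production. On day 6, HBV DNA was purified from filtered supernatant and quantified by real-time PCR against plasmid standards. EC50 values came from non-linear regression of relative copy numbers, typically from three experiments in triplicate.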

HepAD38 cells = experiment: Cell viability assay (AlamarBlue) in HepAD38 cells; details: HepAD38 cells in the presence of 0.3 μg/ml tetracycline, six days incubation
HBV core protein = HBV core protein (UniProt P03146); type: biochemical; details: read-out: Assembly Activity (IC50); BODIPY-FL labelled core protein, assembly started with NaCl, read after 6 min
Procedure, shortened: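 Fluorescence-quenching assembly assay using E. coli-expressed core protein 1–149 plus Cys150, labelled with BODIPY-FL maleimide, at 1.0–2.0 μM in 50 mM HEPES pH 7.5, 0.5% DMSO. Assembly started with NaCl to […]; fluorescence (ex 477/em 525 nm) read after 6 min. EC50 by non-linear regression, 8-point 0.5-log dilutions.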

Sequence of HBV core protein (P03146 whole entry, looked up): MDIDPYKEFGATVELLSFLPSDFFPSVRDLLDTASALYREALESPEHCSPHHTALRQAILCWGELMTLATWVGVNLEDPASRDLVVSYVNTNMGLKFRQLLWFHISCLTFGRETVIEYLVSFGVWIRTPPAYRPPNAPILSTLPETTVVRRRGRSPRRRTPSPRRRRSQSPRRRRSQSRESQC

| Molecule | EC50 (HBV) [nM] | CC50 (HepAD38 cells) [µM] | EC50 (HBV; Hepatitis B virus, 144 h) [nM] | IC50 (HBV core protein) [µM] |
| --- | --- | --- | --- | --- |
| tert-butyl 4-{[5-(1H-indole-2-carbonyl)-4H,5H,6H,7H-[1,3]thiazolo[5,4-c]pyridin-2-yl]carbamoyl}piperidine-1-carboxylate [Example 384] | < 1000 | > 10 |  |  |
| tert-butyl 3-{[5-(1H-indole-2-carbonyl)-4H,5H,6H,7H-[1,3]thiazolo[5,4-c]pyridin-2-yl]carbamoyl}azetidine-1-carboxylate [Example 387] | < 1000 | > 10 |  |  |
| O=C(c1cc2c(F)c(F)ccc2[nH]1)N1CCc2nc(N[C@H]3C[C@H](O)C3)sc2C1 [Example 377, (1r,3r)-3-{[5-(4,5-difluoro-1H-indole-2-carbonyl)-4H,5H,6H,7H-[1,3]thiazolo[5,4-c]pyridin-2-yl]amino}cyclobutan-1-ol] | < 1000 | > 10 |  |  |
| O=C(c1cc2c(Cl)cccc2[nH]1)N1CCc2nc(N[C@H]3C[C@H](O)C3)sc2C1 [Example 381, (1r,3r)-3-{[5-(4-chloro-1H-indole-2-carbonyl)-4H,5H,6H,7H-[1,3]thiazolo[5,4-c]pyridin-2-yl]amino}cyclobutan-1-ol] | < 1000 | > 10 |  |  |
| O=C(Nc1nc2c(s1)CN(C(=O)c1cc3ccccc3[nH]1)CC2)C1[C@H]2COC[C@@H]12 (stereo partly drawn) [Example 361, (1R,5S,6S)—N-[5-(1H-indole-2-carbonyl)-4H,5H,6H,7H-[1,3]thiazolo[5,4-c]pyridin-2-yl]-3-oxabicyclo[3.1.0]hexane-6-carboxamide] | < 1000 | > 10 |  |  |
| O=C(c1cc2ccccc2[nH]1)N1CCc2nc(N[C@H]3C[C@@H](O)C3)sc2C1 [Example 388, (1s,3s)-3-{[5-(1H-indole-2-carbonyl)-4H,5H,6H,7H-[1,3]thiazolo[5,4-c]pyridin-2-yl]amino}cyclobutan-1-ol] | < 1000 | > 10 |  |  |
| CCc1cc(F)cc2[nH]c(C(=O)N3CCc4nc(N[C@H]5C[C@H](O)C5)sc4C3)cc12 [Example 376, (1r,3r)-3-{[5-(4-ethyl-6-fluoro-1H-indole-2-carbonyl)-4H,5H,6H,7H-[1,3]thiazolo[5,4-c]pyridin-2-yl]amino}cyclobutan-1-ol] | < 1000 | > 10 |  |  |
| Cc1cc(F)cc2[nH]c(C(=O)N3CCc4nc(N[C@H]5C[C@H](O)C5)sc4C3)cc12 [Example 379, (1r,3r)-3-{[5-(6-fluoro-4-methyl-1H-indole-2-carbonyl)-4H,5H,6H,7H-[1,3]thiazolo[5,4-c]pyridin-2-yl]amino}cyclobutan-1-ol] | < 1000 | > 10 |  |  |
| N-[5-(1H-indole-2-carbonyl)-4H,5H,6H,7H-[1,3]thiazolo[5,4-c]pyridin-2-yl]piperidine-4-carboxamide hydrochloride [Example 385] | < 1000 | > 10 |  |  |
| O=C(c1cc2c(F)cc(F)cc2[nH]1)N1CCc2nc(N[C@H]3C[C@H](O)C3)sc2C1 [Example 378, (1r,3r)-3-{[5-(4,6-difluoro-1H-indole-2-carbonyl)-4H,5H,6H,7H-[1,3]thiazolo[5,4-c]pyridin-2-yl]amino}cyclobutan-1-ol] | < 1000 | > 10 |  |  |
| CCc1cccc2[nH]c(C(=O)N3CCc4nc(N[C@H]5C[C@H](O)C5)sc4C3)cc12 [Example 380, (1r,3r)-3-{[5-(4-ethyl-1H-indole-2-carbonyl)-4H,5H,6H,7H-[1,3]thiazolo[5,4-c]pyridin-2-yl]amino}cyclobutan-1-ol] | < 1000 | > 10 |  |  |
| Nc1nc2c(s1)CN(C(=O)c1[nH]c3ccccc3c1F)CC2 [Example 220, 5-(3-fluoro-1H-indole-2-carbonyl)-4H,5H,6H,7H-[1,3]thiazolo[5,4-c]pyridin-2-amine] |  |  | 1000 to 10000 | < 100 |
| O=C(Nc1nc2c(s1)CN(C(=O)c1cc3c(C(F)F)cccc3[nH]1)CC2)C1CCOCC1 [Example 400, N-{5-[4-(difluoromethyl)-1H-indole-2-carbonyl]-4H,5H,6H,7H-[1,3]thiazolo[5,4-c]pyridin-2-yl}oxane-4-carboxamide] |  |  | < 1000 | < 5 |
| CCOc1nc2c(s1)CN(C(=O)c1cc3ccccc3[nH]1)CC2 [Example 152, 2-{2-ethoxy-4H,5H,6H,7H-[1,3]thiazolo[5,4-c]pyridine-5-carbonyl}-1H-indole] |  |  | 1000 to 10000 | < 100 |
| O=C(c1cc2ccccc2[nH]1)N1CCc2nc(NC3COC3)sc2C1 [Example 127, 5-(1H-indole-2-carbonyl)-N-(oxetan-3-yl)-4H,5H,6H,7H-[1,3]thiazolo[5,4-c]pyridin-2-amine] |  |  | < 1000 | < 5 |
| O=C(c1cc2ccccc2[nH]1)N1CCc2nc(NC3(c4ccccc4)CC3)sc2C1 [Example 419, 5-(1H-indole-2-carbonyl)-N-(1-phenylcyclopropyl)-4H,5H,6H,7H-[1,3]thiazolo[5,4-c]pyridin-2-amine] |  |  | < 1000 | 5 to 10 |
| Cc1nc2c(s1)CN(C(=O)c1cc3c(Cl)cc(F)cc3[nH]1)CC2 [Example 187, 4-chloro-6-fluoro-2-{2-methyl-4H,5H,6H,7H-[1,3]thiazolo[5,4-c]pyridine-5-carbonyl}-1H-indole] |  |  | < 1000 | < 5 |
| Nc1nc2c(s1)CN(C(=O)c1cc3c([N+](=O)[O-])cccc3[nH]1)CC2 [Example 145, 5-(4-nitro-1H-indole-2-carbonyl)-4H,5H,6H,7H-[1,3]thiazolo[5,4-c]pyridin-2-amine] |  |  | < 1000 | < 5 |
| Cc1ccc(F)c2[nH]c(C(=O)N3CCc4nc(NCC5CCOC5)sc4C3)cc12 (stereo not drawn) [Example 114, 5-(7-fluoro-4-methyl-1H-indole-2-carbonyl)-N-[(oxolan-3-yl)methyl]-4H,5H,6H,7H-[1,3]thiazolo[5,4-c]pyridin-2-amine] |  |  | < 1000 | 5 to 10 |
| O=C(c1cc2ccccc2[nH]1)N1CCc2nc(NCC3CCC3)sc2C1 [Example 418, N-(cyclobutylmethyl)-5-(1H-indole-2-carbonyl)-4H,5H,6H,7H-[1,3]thiazolo[5,4-c]pyridin-2-amine] |  |  | < 1000 | 5 to 10 |
| CC(O)c1cc(F)cc2[nH]c(C(=O)N3CCc4nc(NCC5(CO)CC5)sc4C3)cc12 (stereo not drawn) [Example 249, 1-{6-fluoro-2-[2-({[1-(hydroxymethyl)cyclopropyl]methyl}amino)-4H,5H,6H,7H-[1,3]thiazolo[5,4-c]pyridine-5-carbonyl]-1H-indol-4-yl}ethan-1-ol] |  |  | < 1000 | 5 to 10 |
| Nc1nc2c(s1)CN(C(=O)c1cc3cc(F)ccc3[nH]1)CC2 [Example 196, 5-(5-fluoro-1H-indole-2-carbonyl)-4H,5H,6H,7H-[1,3]thiazolo[5,4-c]pyridin-2-amine] |  |  | 1000 to 10000 | < 5 |
| Nc1nc2c(s1)CN(C(=O)c1cc3ccc(Cl)c(F)c3[nH]1)CC2 [Example 407, 5-(6-chloro-7-fluoro-1H-indole-2-carbonyl)-4H,5H,6H,7H-[1,3]thiazolo[5,4-c]pyridin-2-amine] |  |  | < 1000 | < 5 |
| O=C(c1cc2ccccc2[nH]1)N1CCc2nc(CO)sc2C1 [Example 31, [5-(1H-indole-2-carbonyl)-4H,5H,6H,7H-[1,3]thiazolo[5,4-c]pyridin-2-yl]methanol] |  |  | 1000 to 10000 | 5 to 10 |
